Assay results reported in US20120283245A1, “AZABICYCLO[3.1.0]HEX-2-YL COMPOUNDS, A PROCESS FOR THEIR PREPARATION AND PHARMACEUTICAL COMPOSITIONS CONTAINING THEM” (LES LABORATOIRES SERVIER, priority 2009, published 2012).
Structures can show the parent of a compound that is named as a salt.

These compounds were tested against T1, type H3 central histamine receptors (Mus musculus, UniProt P58406) (assay: Cerebral levels of Nτ-methylhistamine in the NMRI mouse (ex vivo)). Settings: 3 mg/kg PO, one hour after treatment, versus carrier controls.
T1 construct: from tissue; host or cells: brain of living NMRI mice (oral dosing)
T1 sequence (P58406 whole entry): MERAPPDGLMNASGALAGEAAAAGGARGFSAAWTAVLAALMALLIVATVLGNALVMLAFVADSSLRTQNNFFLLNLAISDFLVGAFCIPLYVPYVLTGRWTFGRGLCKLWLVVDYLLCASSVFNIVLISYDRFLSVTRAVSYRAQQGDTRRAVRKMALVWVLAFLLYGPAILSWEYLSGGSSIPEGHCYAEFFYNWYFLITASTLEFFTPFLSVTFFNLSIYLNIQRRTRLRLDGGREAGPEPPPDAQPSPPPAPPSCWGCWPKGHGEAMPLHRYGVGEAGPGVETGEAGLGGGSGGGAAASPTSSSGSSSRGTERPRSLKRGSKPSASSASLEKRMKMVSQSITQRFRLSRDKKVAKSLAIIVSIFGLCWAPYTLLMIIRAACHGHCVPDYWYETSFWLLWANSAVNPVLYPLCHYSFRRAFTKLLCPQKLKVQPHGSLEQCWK
Experimental: The purpose of this study, which was carried out in accordance with the method of Taylor et al. (Biochem. Pharm., 1992, 44, 1261-1267), is to evaluate the ex vivo activity of the compounds of the present invention as antagonists of type H3 central histamine receptors. […] An increase in the cerebral concentrations of N^τ-methylhistamine indicates an increase in to the turn-over of histamine by blockage of the type H3 central histamine receptors. NMRI mice (18-20 g) are treated with compounds of the present invention or with their carrier (20 ml/kg) by the oral route. One hour after the pharmacological treatment, the animals are sacrificed; the brains are removed, frozen in liquid nitrogen, weighed and homogenised in 0.1N HClO4 at 4° C. The homogenised products are centrifuged (15000 g, 17 mins., 4° C.). The supernatants are recovered and divided into aliquots. The aliquots are frozen in liquid nitrogen and stored at −80° C. until they are analysed. Determination of the cerebral levels of N^τ-methylhistamine is carried out by capillary electrophoresis. The tissue levels of N^τ-methylhistamine are expressed in μg/g of fresh brain. The comparison of the cerebral levels of N^τ-methylhistamine between animals treated with the carrier (controls) and animals treated with compounds of the present invention is carried out by single-factor variance analysis followed, if necessary, by a complementary analysis (Dunnett's test).

| Compound | increase of endogenous cerebral concentrations of Nτ-methylhistamine |
| --- | --- |
| CC(=O)N(C)c1ccc(OCCCN2CC[C@H]3C[C@H]32)cc1.Cl (relative stereo) [Example 8, N-(4-{3-(cis-2-azabicyclo[3.1.0]hex-2-yl)propoxy}phenyl)-N-methyl-acetamide hydrochloride] | +276% |
| CC(=O)Nc1ccc(OCCCN2CC[C@H]3C[C@H]32)cc1 (relative stereo) [Example 3, N-(4-{3-(cis-2-azabicyclo[3.1.0]hex-2-yl)propoxy}phenyl)acetamide hydrochloride] | +272% |
| CC(=O)Nc1ccc(OCCN2CC[C@H]3C[C@H]32)cc1.Cl (relative stereo) [Example 4, N-(4-{2-(cis-2-azabicyclo[3.1.0]hex-2-yl)ethoxy}phenyl)acetamide hydrochloride] | +221% |
| CNC(=O)c1ccc(OCCCN2CC[C@H]3C[C@H]32)cc1.Cl (relative stereo) [Example 7, 4-{3-(cis-2-Azabicyclo[3.1.0]hex-2-yl)propoxy}-N-methylbenzamide hydrochloride] | +377% |
| CCN(CC)C(=O)c1ccc(OCCCN2CC[C@H]3C[C@H]32)cc1.Cl (relative stereo) [Example 6, 4-{3-(cis-2-Azabicyclo[3.1.0]hex-2-yl)propoxy}-N,N-diethylbenzamide hydrochloride] | +225% |
| COCC(=O)Nc1ccc(OCCCN2CC[C@H]3C[C@H]32)cc1 (relative stereo) [Example 9, N-(4-{3-(cis-2-azabicyclo[3.1.0]hex-2-yl)propoxy}phenyl)-2-methoxy-acetamide hydrochloride] | +250% |

What follows are compounds tested against T2, type H3 mouse histamine receptors (Mus musculus, UniProt P58406) (assay: Affinity for mouse H3 receptors (iodoproxyfan displacement, transfected CHO cells)). Settings: mouse H3 receptors transfected into CHO cells, iodoproxyfan radioligand, 24 h at room temperature.
T2 construct: expressed in transfected cells; host or cells: CHO cells
T2 sequence (P58406 whole entry): as above
Assay type: binding
Experimental: The purpose is to measure the affinity of compounds of the present invention for type H3 mouse histamine receptors transfected into CHO cells. The compounds are incubated at different concentrations in the presence of transfected CHO cells, iodoproxyfan as a radiolabelled ligand which is specific for H3 receptors, and scintillant beads for 24 h at room temperature. At the end of the incubation, the displacement of the specific binding of the ligand by the compounds under test is measured, and the affinity constants of those compounds for mouse H3 receptors are determined

| Compound | Ki |
| --- | --- |
| NC(=O)c1ccc(OCCCN2CC[C@H]3C[C@H]32)cc1 (racemic) [Example 1, 4-[3-(cis-2-Azabicyclo[3.1.0]hex-2-yl)propoxy]-benzamide hydrochloride] | 2400 nM |
| CC(=O)Nc1ccc(OCCCN2CC[C@H]3C[C@H]32)cc1 (racemic) [Example 3, N-(4-{3-(cis-2-azabicyclo[3.1.0]hex-2-yl)propoxy}phenyl)acetamide hydrochloride] | 750 nM |
| CN(C)C(=O)c1ccc(OCCCN2CC[C@H]3C[C@H]32)cc1 (racemic) [Example 5, 4-{3-(cis-2-Azabicyclo[3.1.0]hex-2-yl)propoxy}-N,N-dimethylbenzamide hydrochloride] | 180 nM |
| COCC(=O)Nc1ccc(OCCCN2CC[C@H]3C[C@H]32)cc1 (racemic) [Example 9, N-(4-{3-(cis-2-azabicyclo[3.1.0]hex-2-yl)propoxy}phenyl)-2-methoxy-acetamide hydrochloride] | 390 nM |
